Consider 19 compounds from ChEMBL document CHEMBL5137107, “Optimization of hERG and Pharmacokinetic Properties for Basic Dihydro-8H-purin-8-one Inhibitors of DNA-PK” (ACS Med Chem Lett, 2022).

Values after ≈ are worked out from the molar mass of the structure shown.

By bioavailability is commonly meant the share of a dose that reaches the circulation, judged against a reference dose that is usually intravenous. Read a low bioavailability as poor availability. What is called logD is the decadic logarithm of the distribution of all forms, ionised or not, between an organic phase and buffer at a given pH. By Papp A→B is commonly meant how fast a substance crosses the layer from the apical side. In general, solubility refers to the dissolved amount per volume that the medium holds. Lower therefore signals a poorly soluble substance. Usually pKa stands for the negative logarithm of the acid dissociation constant. A higher pKa goes with a weaker acid or stronger base. In general, EC10 refers to the concentration at which the effect reaches the 10% level.

Data set [1] is described as follows: Oral bioavailability in Beagle dog at 2 mg/kg. It counts as ADME, organism-based, Canis lupus familiaris. To be noted: in vivo.
A short description of data set [2]: Oral bioavailability in Han Wistar rat at 5 mg/kg. The class given is ADME, organism-based. The settings on record: in vivo.
Data set [3] is described as follows: 1-Octanol/aqueous buffer partition coefficient, logD of the compound at pH 7.4 by shake flask technique based UPLC analysis. It counts as physicochemical.
The nature of data set [4]: Apparent permeability of compound across apical to basal membrane in human Caco-2 by ABBA assay. It counts as ADME, cell-based.
Data set [5] in a line: Solubility of the compound in FaSSIF at pH 6.5. It counts as physicochemical.
Data set [6] can be described thus: Volume of distribution at steady state in Han Wistar rat at 5 mg/kg, po or 2 mg/kg, iv. It counts as ADME, organism-based. The settings on record: in vivo.
Data set [7] is described as follows: Volume of distribution at steady state in Beagle dog at 2 mg/kg, po or 1 mg/kg, iv. The class given is ADME, organism-based, Canis lupus familiaris. The settings on record: in vivo.
Data set [8] in a line: Acid dissociation constant, pKa of the compound. It counts as physicochemical.
A short description of data set [9]: Cardiotoxicity in guinea pig assessed as unbound concentration required to increase in QTc level by 10% administered as iv infusion consecutively for 15 mins. It counts as toxicity, organism-based, Cavia porcellus. To be noted: in vivo.
Data set [10] can be described thus: Solubility of the compound. It counts as physicochemical.
Data set [11] is described as follows: Cardiotoxicity in guinea pig assessed as increase in QTc level by measuring unbound Cmax at 3 to 30 mg/kg administered as iv infusion consecutively for 15 mins. It counts as toxicity, organism-based, Cavia porcellus. To be noted: in vivo, dose 3-30 mg/kg.

Take `Cc1cc2ncccc2cc1Nc1ncc2c(n1)n([C@@H]1CNC[C@H]1F)c(=O)n2C`: the results for the bioavailability in [1] and in data set [2] were 52% and 58%, respectively. In data set [3], this compound showed a log distribution coefficient (logD) of 1.6. The Papp A→B in data set [4] was 9.4 ×10⁻⁶ cm/s. Also, in data set [5], the solubility was found to be 872 µM (≈ 343 µg/mL). The Vdss in [6] turned out to be 2.1 L/kg; in data set [7], 5.4 L/kg. This compound displayed a pKa in [8] of 7.3.
In data set [3], `Cc1cc2ncnn2cc1Nc1ncc2c(n1)n(C1CCN(C)CC1)c(=O)n2C` returned a logD of 0.3.
With `Cc1cc2ncccc2cc1Nc1ncc2c(n1)n([C@@H]1CNC[C@@H]1F)c(=O)n2C`, in data set [3], the logD came to 1.7. In addition, the pKa in [8] worked out at 7.2.
Regarding `Cc1cc2ncccc2cc1Nc1ncc2c(n1)n([C@@H]1CN(C)C[C@H]1F)c(=O)n2C`, the log distribution coefficient (logD) in data set [3] is 2.1. The pKa in data set [8] stood at 6.5.
As to `Cc1cc2ncccc2cc1Nc1ncc2c(n1)n(C1CCOCC1)c(=O)n2C`, the log distribution coefficient (logD) in [3] is 2.5.
On the same count and under the same terms, as for `Cc1cc2nnccc2cc1Nc1ncc2c(n1)n(C1CCOCC1)c(=O)n2C`, the figure is 2.2.
As for `Cc1cc2ncccc2cc1Nc1ncc2c(n1)n([C@@H]1CCN(C)C1)c(=O)n2C`, in data set [3], the logD came out at 1.2. The compound further showed a pKa in [8] of 8.7.
`Cc1cc2ncccc2cc1Nc1ncc2c(n1)n([C@@H]1CN(C)C[C@@H]1F)c(=O)n2C` returned a logD in data set [3] of 2.2.
On the same count and under the same terms, as for `Cc1cc2ncncc2cc1Nc1ncc2c(n1)n(C1CCOCC1)c(=O)n2C`, the figure is 2.2.
Regarding `Cc1cc2ncccc2cc1Nc1ncc2c(n1)n(C1CCN(C)CC1)c(=O)n2C`, the EC10 in data set [9] was determined as 2.3 µM. The compound also came in with a solubility in data set [10] of 178 µM (≈ 71.8 µg/mL). In addition, in [3], the logD is 1.8. For the same compound, the Papp A→B in data set [4] came to 14 ×10⁻⁶ cm/s. The pKa in [8] worked out at 8.2.
In turn, `Cc1cc2ncccc2cc1Nc1ncc2c(n1)n([C@H]1CCN(CCO)C1)c(=O)n2C` had a logD in [3] of 0.9. Moreover, the Papp A→B in data set [4] turned out to be 2.6 ×10⁻⁶ cm/s. Further, the pKa in data set [8] is 8.2.
With `Cc1cc2ncccc2cc1Nc1ncc2c(n1)n(C1CCNCC1)c(=O)n2C`, the pH-dependent lipophilicity (logD) in data set [3] was found to be 0.5. In addition, the apparent permeability from apical to basolateral (Papp A→B) in data set [4] amounted to 0.7 ×10⁻⁶ cm/s.
In [3], `Cc1cc2nccnc2cc1Nc1ncc2c(n1)n(C1CCOCC1)c(=O)n2C` had a logD of 2.2.
`Cc1cc2nccnc2cc1Nc1ncc2c(n1)n(C1CCN(C)CC1)c(=O)n2C`: the logD in [3] came to 1.2.
`Cc1cc2ncccc2cc1Nc1ncc2c(n1)n([C@H]1CCN(C3COC3)C1)c(=O)n2C` gave a logD in [3] of 1.5.
Turning to `Cc1cc2nnccc2cc1Nc1ncc2c(n1)n(C1CCN(C)CC1)c(=O)n2C`, the logD in data set [3] is 1.2.
As for `Cc1cc2ncccc2cc1Nc1ncc2c(n1)n([C@H]1CCN(C)C1)c(=O)n2C`, in data set [11], the EC10 turned out to be 3.9 µM. The logD in data set [3] turned out to be 1.1. Besides, the apparent permeability from apical to basolateral (Papp A→B) in [4] came out at 19 ×10⁻⁶ cm/s. In addition, the pKa in data set [8] was 8.9.
Compound `COCCN1CC[C@H](n2c(=O)n(C)c3cnc(Nc4cc5cccnc5cc4C)nc32)C1` registered a logD in data set [3] of 1.7.
`Cc1cc2ncnn2cc1Nc1ncc2c(n1)n(C1CCOCC1)c(=O)n2C` [AZD-7648] showed a logD in [3] of 1.3.
